Where two headings read alike, the source gives them in different places.
Key:
[1] = Clinical Observation following intravenous and oral administration; assay type: in vivo, Male Sprague Dawley Rats
Experimental: (§1) Method: For IV infusion over 10 minutes the compound of Example 3.4 was dissolved in 20% DMSO, 30% PEG400 and 50% Water. For oral (PO) dosing AVX62738 was dissolved in 0.5% benzyl alcohol and 0.4% Tween 80 and 99.1% 0.5% hydroxypropylmethylcellulose. Compounds were dosed IV and then after a one week washout, orally in the same rats. (Body weight: Rat 1: 254.7 g; Rat 2: 253.4 g). Ex-vivo plasma samples were assayed for AVX62738 using an LC-ms method of Lower limit of quantitation. (LLOQ)=2.5 ng/mL.

HIV-1 = assay: Luciferase Assay with single-round reporter virus (NLXLuc or HIV-Luc); assay type: cell-based; settings: Human immunodeficiency virus 1
Excerpt: Infectivity assays using reporter viruses derived from lentiviral vectors capable of a single round of infection were used to determine the activity (EC50) of compounds. The DNA used to generate viruses for infection was the full-length HIV-1 genome which had been envelope-deleted. In addition, a reporter gene (the firefly luciferase gene from Photinus pyralis) was cloned into the nefregion of the HIV backbone for ease of assay readout. […]. Culture supernatants containing VSV-G pseudotyped virions were harvested 64 h post transfection, clarified by centrifugation to remove cell debris, and frozen at −70° C. until use.
293FT cells were plated out at 12000 cells per well in CellView 96-well cell culture plates (Invitrogen) 16 h prior to compound addition. Compounds were preincubated with cells for 4 h at 37° C. prior to the addition of virus sufficient to generate approximately 10000 Luciferase light units (as measured by the Victor Wallace luminometer) upon assaying using the Bright-Glo™ reagent (Promega) according to the manufacturer's instructions at 48 h post infection.
In the tables below, this assay is referred to as NLXLuc or HIV-Luc.

[2] = Bioavailability and pharmacokinetic profile following intravenous and oral administration; assay type: in vivo, Male Sprague Dawley Rats; settings: for MRT inf: read-out: MRT(0-∞); for Vd: read-out: Vz
Experimental: as §1

[3] = male, Sprague Dawley, rat, plasma, iv, 5 mg/kg, IV 5 mg/kg, Mean
[4] = male, Sprague Dawley, rat, plasma, iv, 5 mg/kg, IV 5 mg/kg, Rat 1
[5] = male, Sprague Dawley, rat, plasma, iv, 5 mg/kg, IV 5 mg/kg, Rat 2
[6] = male, Sprague Dawley, rat, plasma, iv, 5 mg/kg, IV (5 mg/kg), Mean
[7] = male, Sprague Dawley, rat, plasma, iv, 5 mg/kg, IV (5 mg/kg), animal 701
[8] = male, Sprague Dawley, rat, plasma, po, 10 mg/kg, PO 10 mg/kg, Mean
[9] = male, Sprague Dawley, rat, plasma, po, 10 mg/kg, PO 10 mg/kg, Rat 1
[10] = male, Sprague Dawley, rat, plasma, po, 10 mg/kg, PO 10 mg/kg, Rat 2
[11] = male, Sprague Dawley, rat, plasma, po, 10 mg/kg, PO (10 mg/kg), Mean
[12] = male, Sprague Dawley, rat, plasma, po, 10 mg/kg, PO (10 mg/kg), animal 801
[13] = male, Sprague Dawley, rat, plasma, po, 10 mg/kg, PO (10 mg/kg), animal 802
[14] = male, Sprague-Dawley, rat, plasma, iv, 5 mg/kg, IV (5 mg/kg), animal 701
[15] = male, Sprague-Dawley, rat, plasma, iv, 5 mg/kg, IV (5 mg/kg), animal 702

## CN1CCN(c2cc(N3CCN(C)S3(=O)=O)c3nc(C(=O)NCc4ccc(F)cc4)c(O)c(=O)n3c2)CC1 [Example 3.4, 3-Hydroxy-9-(5-methyl-1,1-dioxo-1,6-[1,2,5]thiadiazolidin-2-yl)-7-(4-methyl-piperazin-1-yl)-4-oxo-4H-pyrido[1,2-a]pyrimidine-2-carboxylic acid 4-fluoro-benzylamide]
[1]; following intravenous administration (5 mg/kg)
  Clinical Observation: Following intravenous administration, no obvious abnormalities were
[1]; following oral administration (10 mg/kg)
  Clinical Observation: Following oral administration, no obvious abnormalities were observed.
HIV-1
  EC50: 1 to 10 nM
[2]; IV 5 mg/kg, Rat 1, 24 hr
  Plasma Concentration: BLQ (BLQ: Below limit of quantitation)
[2]; IV 5 mg/kg, Rat 1, Pre-dose
  Plasma Concentration: BLQ (BLQ: Below limit of quantitation)
[2]; IV 5 mg/kg, Rat 2, 24 hr
  Plasma Concentration: BLQ (BLQ: Below limit of quantitation)
[2]; IV 5 mg/kg, Rat 2, Pre-dose
  Plasma Concentration: BLQ (BLQ: Below limit of quantitation)
[2]; IV (5 mg/kg), Mean
  CLz: 44.8 mL/min/kg
  t1/2z: 80.4 min
[2]; IV (5 mg/kg), animal 701
  CLz: 44.8 mL/min/kg
  t1/2z: 83.4 min
[2]; IV (5 mg/kg), animal 702
  CLz: 44.8 mL/min/kg
  t1/2z: 77.4 min
[2]; PO 10 mg/kg, Rat 1, Pre-dose
  Plasma Concentration: BLQ (BLQ: Below limit of quantitation)
[2]; PO 10 mg/kg, Rat 2, 6 hr
  Plasma Concentration: BLQ (BLQ: Below limit of quantitation)
[2]; PO 10 mg/kg, Rat 2, 8 hr
  Plasma Concentration: BLQ (BLQ: Below limit of quantitation)
[2]; PO 10 mg/kg, Rat 2, 24 hr
  Plasma Concentration: BLQ (BLQ: Below limit of quantitation)
[2]; PO 10 mg/kg, Rat 2, Pre-dose
  Plasma Concentration: BLQ (BLQ: Below limit of quantitation)
[2]; PO (10 mg/kg), Mean
  F: 2.95%
  t1/2z: 74.4 min
[2]; PO (10 mg/kg), animal 801
  F: 2.39%
  t1/2z: 99 min
[2]; PO (10 mg/kg), animal 802
  F: 3.50%
  t1/2z: 49.8 min
[2]; [3]
  concentration at 0.083 hr: 3030 ng/mL
  concentration at 0.25 hr: 2060 ng/mL
  concentration at 0.5 hr: 1140 ng/mL
  concentration at 1 hr: 527 ng/mL
  concentration at 2 hr: 113 ng/mL
  concentration at 4 hr: 19 ng/mL
[2]; male, Sprague Dawley, rat, plasma, iv, 5 mg/kg, IV 5 mg/kg, Mean, 6 hr
  concentration at 6 hr: 6.21 ng/mL
[2]; male, Sprague Dawley, rat, plasma, iv, 5 mg/kg, IV 5 mg/kg, Mean, 8 hr
  concentration at 8 h: 2.41 ng/mL
[2]; [4]
  concentration at 0.083 hr: 2710 ng/mL
  concentration at 0.25 hr: 1990 ng/mL
  concentration at 0.5 hr: 1210 ng/mL
  concentration at 1 hr: 548 ng/mL
  concentration at 2 hr: 123 ng/mL
  concentration at 4 hr: 19.3 ng/mL
[2]; male, Sprague Dawley, rat, plasma, iv, 5 mg/kg, IV 5 mg/kg, Rat 1, 6 hr
  concentration at 6 hr: 5.44 ng/mL
[2]; male, Sprague Dawley, rat, plasma, iv, 5 mg/kg, IV 5 mg/kg, Rat 1, 8 hr
  concentration at 8 h: 2.64 ng/mL
[2]; [5]
  concentration at 0.083 hr: 3350 ng/mL
  concentration at 0.25 hr: 2130 ng/mL
  concentration at 0.5 hr: 1060 ng/mL
  concentration at 1 hr: 506 ng/mL
  concentration at 2 hr: 104 ng/mL
  concentration at 4 hr: 18.7 ng/mL
[2]; male, Sprague Dawley, rat, plasma, iv, 5 mg/kg, IV 5 mg/kg, Rat 2, 6 hr
  concentration at 6 hr: 6.97 ng/mL
[2]; male, Sprague Dawley, rat, plasma, iv, 5 mg/kg, IV 5 mg/kg, Rat 2, 8 hr
  concentration at 8 h: 2.19 ng/mL
[2]; [6]
  AUC(0-inf): 1860 ng·h/mL
  AUC(0-t): 1850 ng·h/mL
  Cmax: 3030 ng/mL
  Tmax: 4.8 min
  MRT inf: 39.6 min
  Vd: 5.21 L/kg
[2]; [7]
  AUC(0-inf): 1860 ng·h/mL
  AUC(0-t): 1860 ng·h/mL
  Tmax: 4.8 min
  MRT inf: 40.8 min
[2]; [8]
  concentration at 0.083 hr: 35.2 ng/mL
  concentration at 0.25 hr: 72.2 ng/mL
  concentration at 0.5 hr: 63.6 ng/mL
  concentration at 1 hr: 39.5 ng/mL
  concentration at 2 hr: 14.1 ng/mL
  concentration at 4 hr: 5.29 ng/mL
[2]; male, Sprague Dawley, rat, plasma, po, 10 mg/kg, PO 10 mg/kg, Mean, 6 hr
  concentration at 6 h: 1.31 ng/mL
[2]; [9]
  concentration at 0.083 hr: 42.4 ng/mL
  concentration at 0.25 hr: 66.2 ng/mL
  concentration at 0.5 hr: 35.7 ng/mL
  concentration at 1 hr: 20.9 ng/mL
  concentration at 2 hr: 13.8 ng/mL
  concentration at 4 hr: 5.62 ng/mL
[2]; male, Sprague Dawley, rat, plasma, po, 10 mg/kg, PO 10 mg/kg, Rat 1, 6 hr
  concentration at 6 hr: 2.62 ng/mL
[2]; male, Sprague Dawley, rat, plasma, po, 10 mg/kg, PO 10 mg/kg, Rat 1, 8 hr, not kept for calculation
  concentration at 8 h: 148 ng/mL
[2]; male, Sprague Dawley, rat, plasma, po, 10 mg/kg, PO 10 mg/kg, Rat 1, 24 hr, not kept for calculation
  concentration at 24 h: 4.66 ng/mL
[2]; [10]
  concentration at 0.083 hr: 28.1 ng/mL
  concentration at 0.25 hr: 78.1 ng/mL
  concentration at 0.5 hr: 91.6 ng/mL
  concentration at 1 hr: 58.1 ng/mL
  concentration at 2 hr: 14.3 ng/mL
  concentration at 4 hr: 4.96 ng/mL
[2]; [11]
  AUC(0-inf): 110 ng·h/mL
  AUC(0-t): 103 ng·h/mL
  Cmax: 78.9 ng/mL
  Tmax: 22.8 min
  MRT inf: 97.8 min
[2]; [12]
  AUC(0-inf): 89 ng·h/mL
  AUC(0-t): 82.8 ng·h/mL
  Cmax: 66.2 ng/mL
  Tmax: 15 min
  MRT inf: 122 min
[2]; [13]
  AUC(0-inf): 130 ng·h/mL
  AUC(0-t): 124 ng·h/mL
  Cmax: 91.6 ng/mL
  Tmax: 30 min
  MRT inf: 73.2 min
[2]; [14]
  Cmax: 2710 ng/mL
  Vd: 5.39 L/kg
[2]; [15]
  AUC(0-inf): 1860 ng·h/mL
  AUC(0-t): 1850 ng·h/mL
  Cmax: 3350 ng/mL
  Tmax: 4.8 min
  MRT inf: 37.8 min
  Vd: 5.02 L/kg
